One block for each molecule: values may come before it.
How the values were obtained:
[1] = molecular target: T1, ATP-binding cassette sub-family C member 2 (Rattus norvegicus, UniProt Q63120); assay: TP_TRANSPORTER: inhibition of DNP-SG uptake in bile canalicular membrane vesicles from SD rat; assay type: functional, cell membranes, Sprague-Dawley, Bile canalicular membrane vesicle
[2] = molecular target: T1, ATP-binding cassette sub-family C member 2; assay: TP_TRANSPORTER: uptake in bile canalicular membrane vesicles from SD rat; assay type: functional, cell membranes, Sprague-Dawley, Bile canalicular membrane vesicle
[3] = molecular target: T1, ATP-binding cassette sub-family C member 2; assay: TP_TRANSPORTER: uptake in bile canalicular membrane vesicles from EHBR rat; assay type: functional, cell membranes, Bile canalicular membrane vesicle
[4] = molecular target: T1, ATP-binding cassette sub-family C member 2; assay: TP_TRANSPORTER: inhibition of DNP-SG uptake (DNP-SG: 1 uM, LFLX: 10000uM) in bile canalicular membrane vesicles from SD rat; assay type: functional, cell membranes, Sprague-Dawley, Bile canalicular membrane vesicle
[5] = molecular target: T1, ATP-binding cassette sub-family C member 2; assay: TP_TRANSPORTER: inhibition of DNP-SG uptake (DNP-SG: 1 uM, LFLX: 10000uM) in bile canalicular membrane vesicles from EHBR rat; assay type: functional, cell membranes, Bile canalicular membrane vesicle
[6] = molecular target: T1, ATP-binding cassette sub-family C member 2; assay: TP_TRANSPORTER: inhibition of DNP-SG uptakee (DNP-SG: 1 uM, OFLX: 10000 uM) in bile canalicular membrane vesicles from SD rat; assay type: functional, cell membranes, Sprague-Dawley, Bile canalicular membrane vesicle
[7] = molecular target: T1, ATP-binding cassette sub-family C member 2; assay: TP_TRANSPORTER: inhibition of DNP-SG uptakee (DNP-SG: 1 uM, SPFX: 3000 uM) in bile canalicular membrane vesicles from SD rat; assay type: functional, cell membranes, Sprague-Dawley, Bile canalicular membrane vesicle; design: scale not given: the % may be the effect or the level left
[8] = molecular target: ATP-binding cassette sub-family C member 2 (ABCC2/Mrp2) (Rattus norvegicus, UniProt Q63120); assay: TP_TRANSPORTER: inhibition of DNP-SG uptakee (DNP-SG: 1 uM, SPFX: 3000 uM) in bile canalicular membrane vesicles from EHBR rat; assay type: functional, cell membranes, Bile canalicular membrane vesicle; design: scale not given: the % may be the effect or the level left; details: probe DNP-SG (1 uM), read-out: Activity
[9] = substrate: Cc1c(F)c(N2CCNC(C)C2)cc2c1c(=O)c(C(=O)O[C@@H]1O[C@H](C(=O)O)[C@@H](O)[C@H](O)[C@H]1O)cn2C1CC1; assay: TP_TRANSPORTER: uptake, high affinity component in bile canalicular membrane vesicles from SD rat; assay type: functional, cell membranes, Sprague-Dawley, Bile canalicular membrane vesicle

Ki [1]: 9.2 µM
Molecule: Cc1c(F)c(N2CCNC(C)C2)cc2c1c(=O)c(C(=O)O[C@@H]1O[C@H](C(=O)O)[C@@H](O)[C@H](O)[C@H]1O)cn2C1CC1 (stereo not given in full) [GREPAFLOXACIN GLUCURONIDE]

Activity [2]: substrate [+]
Ki [1]: 1890 µM
Activity [3]: substrate [+]
Molecule: Cc1c(F)c(N2CCNC(C)C2)cc2c1c(=O)c(C(=O)O)cn2C1CC1 (stereo not given) [GREPAFLOXACIN]

Molecule: CCn1cc(C(=O)O)c(=O)c2cc(F)c(N3CCNC(C)C3)c(F)c21 (stereo not given) [LOMEFLOXACIN]
Activity [4]: inhibitor [(at a rough estimate) 50 % of control]
Activity [5]: inhibitor [(at a rough estimate) 50 % of control]

Molecule: CC1COc2c(N3CCN(C)CC3)c(F)cc3c(=O)c(C(=O)O)cn1c23 (stereo not given) [OFLOXACIN]
Activity [6]: inhibitor [(at a rough estimate) 50 % of control]

Activity [7]: 60%
activity at 3000 µM [8]: 60%
Molecule: C[C@@H]1CN(c2c(F)c(N)c3c(=O)c(C(=O)O)cn(C4CC4)c3c2F)C[C@H](C)N1 [SPARFLOXACIN]

B1: ATP-binding cassette sub-family C member 2 (Rattus norvegicus) (protein)
chain: MDKFCNSTFWDLSLLESPEADLPLCFEQTVLVWIPLGFLWLLAPWQLYSVYRSRTKRSSITKFYLAKQVFVVFLLILAAIDLSLALTEDTGQATVPPVRYTNPILYLCTWLLVLAVQHSRQWCVRKNSWFLSLFWILSVLCGVFQFQTLIRALLKDSKSNMAYSYLFFVSYGFQIVLLILTAFSGPSDSTQTPSVTASFLSSITFSWYDRTVLKGYKHPLTLEDVWDIDEGFKTRSVTSKFEAAMTKDLQKARQAFQRRLQKSQRKPEATLHGLNKKQSQSQDVLVLEEAKKKSEKTTKDYPKSWLIKSLFKTFHVVILKSFILKLIHDLLVFLNPQLLKLLIGFVKSSNSYVWFGYICAILMFAVTLIQSFCLQSYFQHCFVLGMCVRTTVMSSIYKKALTLSNLARKQYTIGETVNLMSVDSQKLMDATNYMQLVWSSVIQITLSIFFLWRELGPSILAGVGVMVLLIPVNGVLATKIRNIQVQNMKNKDKRLKIMNEILSGIKILKYFAWEPSFQEQVQGIRKKELKNLLRFGQLQSLLIFILQITPILVSVVTFSVYVLVDSANVLNAEKAFTSITLFNILRFPLSMLPMVTSSILQASVSVDRLERYLGGDDLDTSAIRRVSNFDKAVKFSEASFTWDPDLEATIQDVNLDIKPGQLVAVVGTVGSGKSSLVSAMLGEMENVHGHITIQGSTAYVPQQSWIQNGTIKDNILFGSEYNEKKYQQVLKACALLPDLEILPGGDMAEIGEKGINLSGGQKQRVSLARAAYQDADIYILDDPLSAVDAHVGKHIFNKVVGPNGLLAGKTRIFVTHGIHFLPQVDEIVVLGKGTILEKGSYRDLLDKKGVFARNWKTFMKHSGPEGEATVNNDSEAEDDDDGLIPTMEEIPEDAASLAMRRENSLRRTLSRSSRSSSRRGKSLKNSLKIKNVNVLKEKEKEVEGQKLIKKEFVETGKVKFSIYLKYLQAVGWWSILFIILFYGLNNVAFIGSNLWLSAWTSDSDNLNGTNNSSSHRDMRIGVFGALGLAQGICLLISTLWSIYACRNASKALHGQLLTNILRAPMRFFDTTPTGRIVNRFSGDISTVDDLLPQTLRSWMMCFFGIAGTLVMICMATPVFAIIIIPLSILYISVQVFYVATSRQLRRLDSVTKSPIYSHFSETVTGLPIIRAFEHQQRFLAWNEKQIDINQKCVFSWITSNRWLAIRLELVGNLVVFCSALLLVIYRKTLTGDVVGFVLSNALNITQTLNWLVRMTSEAETNIVAVERISEYINVENEAPWVTDKRPPADWPRHGEIQFNNYQVRYRPELDLVLKGITCNIKSGEKVGVVGRTGAGKSSLTNCLFRILESAGGQIIIDGIDVASIGLHDLRERLTIIPQDPILFSGSLRMNLDPFNKYSDEEVWRALELAHLRSFVSGLQLGLLSEVTEGGDNLSIGQRQLLCLGRAVLRKSKILVLDEATAAVDLETDSLIQTTIRKEFSQCTVITIAHRLHTIMDSDKIMVLDNGKIVEYGSPEELLSNRGSFYLMAKEAGIENVNHTEL
Km [9]: 7.2 µM

Reference: ChEMBL document CHEMBL2073762, “Carrier-mediated mechanism for the biliary excretion of the quinolone antibiotic grepafloxacin and its glucuronide in rats” (J Pharmacol Exp Ther, 1998)
